In brackets after ≈: the same amount, converted by molar mass. Read-outs that look alike come from different tables or passages of the source. Peptide text beside a SMILES is read from it.
Assays:
[1] = molecular target: T1, human NK1 receptor (hNK1) (Homo sapiens, UniProt P25103); assay: Radioligand competition binding, [3H]-Substance P, hNK1
T1 construct: expressed in transfected cells

[2] = Octanol/saline distribution (logD7.4); type: physicochemical; settings: 0.05 N HEPES buffer in 0.1 N NaCl
Procedure: HEPES buffer (0.05 M HEPES buffer in 0.1 M NaCl, pH 7.4, 500 μL) was added to 2 mg of compound and mixed with 500 μL of 1-octanol. The sample was shaken at r.t. for 12 h to allow equilibrating. The sample was centrifuged at 6500 rpm in a VanGuard V6500 (GlaxoSmithKline, Research Triangle Park, N.C.) for 15 min. The layers were separated and each layer was centrifuged once again. The compound concentrations of obtained layers were analyzed by HPLC (30-70% of acetonitrile containing 0.1% TFA within 20 min and up to 95% within additional 5 min, 1 mL/min, 230 nm, Vydac 218TP104 C-18 column). The logarithm of 1-octanol/saline distribution (logD7.4) was calculated as the ratio of compound concentration in the 1-octanol and saline phases.
Octanol/saline distribution (logD7.4) (Yamamoto, 2007, J. Med. Chem., submitted). HEPES buffer (0.05 M HEPES buffer in 0.1 M NaCl, pH 7.4, 500 μL) was added to 2 mg of compound and mixed with 500 μL of 1-octanol. The sample was shaken at r.t. for 12 h to allow equilibrating. The sample was centrifuged at 6500 rpm in a VanGuard V6500 (GlaxoSmithKline, Research Triangle Park, N.C.) for 15 min. The layers were separated and each layer was centrifuged once again. The compound concentrations in the obtained layers were analyzed by HPLC (30-70% of acetonitrile containing 0.1% TFA within 20 min and up to 95% within additional 5 min, 1 mL/min, 230 nm, Vydac 218TP104 C-18 column). The logarithm of 1-octanol/saline distribution (logD7.4) was calculated as the ratio of compound concentration in the 1-octanol and saline phases.

[3] = molecular target: T2, rat NK1 (rNK1) receptor (Rattus norvegicus, UniProt P14600); assay: Radioligand competition binding, [3H]substance P, rNK1/CHO membranes; settings: for IC50: LogIC50, rNK1, [3H]Substance P, logarithm of IC50 (negative), CHO cell membranes
T2 construct: expressed in transfected cells; host or cells: CHO (rNK-1/CHO cell line from Dr. James Krause)
T2 sequence (P14600 whole entry): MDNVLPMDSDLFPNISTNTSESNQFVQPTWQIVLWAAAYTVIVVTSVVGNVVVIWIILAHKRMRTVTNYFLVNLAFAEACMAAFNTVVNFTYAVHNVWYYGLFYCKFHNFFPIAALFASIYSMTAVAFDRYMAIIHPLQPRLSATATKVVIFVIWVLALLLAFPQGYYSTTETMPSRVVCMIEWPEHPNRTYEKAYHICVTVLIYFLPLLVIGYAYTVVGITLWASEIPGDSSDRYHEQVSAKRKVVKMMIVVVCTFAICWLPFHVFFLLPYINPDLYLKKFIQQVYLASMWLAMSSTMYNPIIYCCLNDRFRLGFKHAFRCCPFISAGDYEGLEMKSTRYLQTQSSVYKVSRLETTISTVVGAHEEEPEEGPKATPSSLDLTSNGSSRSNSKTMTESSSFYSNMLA

[4] = test system: μ opioid receptors (GPI); assay: Guinea pig isolated ileum (GPI) assay, opioid agonist;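 note: inhibition of electrically evoked contractions (0.1 Hz, 0.4 msec, supramaximal voltage) in organ baths at 37 °C, contraction height 3 min after each cumulative dose versus the 1 min before dosing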
Procedure: Guinea Pig Isolated Ileum Assay. […] These tissues were tied to gold chains with suture silk and mounted between platinum wire electrodes in 20 mL organ baths at a tension of 1 g and bathed in oxygenated (95:5 O2:CO2) Kreb's bicarbonate buffer at 37° C. and stimulated electrically (0.1 Hz, 0.4 msec duration) at supramaximal voltage. Following an equilibration period, compounds were added cumulatively to the bath in volumes of 14-60 μL until maximum inhibition was reached. A baseline PL-017 was constructed to determine tissue integrity and allow calculation of antagonist activity before opioid analog testing began.
For opioid data analysis, percentage inhibition was calculated using the average tissue contraction height for 1 min preceding the addition of the agonist divided by the contraction height 3 min after exposure to the dose of agonist. […] IC50 and Emax estimates were determined by computerized nonlinear least-squares analysis (the pharmacological statistics package FlashCalc: Dr. Michael Ossipov, University of Arizona, Tucson, Ariz.). […] A50 values represent the mean of not less than 4 tissues. A50 and Emax estimates were determined by computerized nonlinear least-squares analysis (FlashCalc).

[5] = molecular target: T3, rat μ opioid receptors (rMOR) (Rattus norvegicus, UniProt P33535); assay: Radioligand competition binding, [3H]DAMGO, rMOR membranes
T3 construct: expressed in transfected cells; host or cells: HN9.10 neuroblastoma cell line, pCDNA3, neomycin-selected clones
T3 sequence (P33535 whole entry): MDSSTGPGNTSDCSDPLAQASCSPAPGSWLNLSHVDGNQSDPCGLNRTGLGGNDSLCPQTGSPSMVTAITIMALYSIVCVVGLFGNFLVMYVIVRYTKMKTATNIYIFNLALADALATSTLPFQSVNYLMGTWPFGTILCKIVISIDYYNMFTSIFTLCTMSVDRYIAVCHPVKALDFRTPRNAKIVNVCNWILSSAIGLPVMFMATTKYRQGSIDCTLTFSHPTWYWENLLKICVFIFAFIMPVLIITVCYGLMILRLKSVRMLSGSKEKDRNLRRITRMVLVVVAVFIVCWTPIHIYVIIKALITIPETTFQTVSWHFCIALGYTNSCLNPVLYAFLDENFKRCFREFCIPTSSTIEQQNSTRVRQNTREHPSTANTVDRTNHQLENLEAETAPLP

[6] = In vitro stability in rat plasma at 37° C.; type: in vitro ADME; settings: rat, rat plasma, read-out: half life (T1/2) in rat plasma (converted)
Procedure: The derivative compounds were tested for their metabolite stability. The compounds were incubated in rat plasma at 37° C., and aliquots were withdrawn at various time points and analyzed by HPLC to determine the concentration of remaining compound derivatives (FIGS. 15-16, 36, and 47-48).
In Vitro Stability of compound derivatives in Rat Plasm (Yamamoto, 2007, J. Am. Chem. Soc. submitted). Stock solution of compounds (50 mg/mL in DMSO) were diluted 1000-fold into rat plasma (Lot 24927, Pel-Freez Biologicals, Rogers, Ak.) to result in an incubation concentration of 50 μg/mL. All samples were incubated at 37° C. for 6 h, and 200 μL of aliquots were withdrawn at 1 h, 2 h, 4 h and 6 h. […] The samples were run in triplicate. Discussion.

[7] = molecular target: T4, human δ opioid receptors (hDOR) (Homo sapiens, UniProt P41143); assay: Radioligand competition binding, [3H]DPDPE, hDOR membranes
T4 construct: expressed in transfected cells; host or cells: HN9.10 neuroblastoma cell line, pCDNA3, neomycin-selected clones
T4 sequence (P41143 whole entry): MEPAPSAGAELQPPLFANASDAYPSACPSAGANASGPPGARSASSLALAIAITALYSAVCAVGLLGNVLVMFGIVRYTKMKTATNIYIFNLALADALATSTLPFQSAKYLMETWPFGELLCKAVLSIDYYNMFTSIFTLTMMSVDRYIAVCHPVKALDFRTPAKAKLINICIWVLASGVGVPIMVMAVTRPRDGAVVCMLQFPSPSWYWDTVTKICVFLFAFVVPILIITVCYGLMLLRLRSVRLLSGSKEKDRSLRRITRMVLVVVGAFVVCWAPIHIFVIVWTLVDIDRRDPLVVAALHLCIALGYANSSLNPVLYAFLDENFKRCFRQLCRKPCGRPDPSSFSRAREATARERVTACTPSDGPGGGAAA

[8] = molecular target: T5, δ opioid receptors (MVD) (Mus musculus, UniProt P32300); assay: Mouse isolated vas deferens (MVD) assay, opioid agonist
T5 construct: from tissue; host or cells: mouse (ICR) isolated vas deferens
T5 sequence (P32300 whole entry): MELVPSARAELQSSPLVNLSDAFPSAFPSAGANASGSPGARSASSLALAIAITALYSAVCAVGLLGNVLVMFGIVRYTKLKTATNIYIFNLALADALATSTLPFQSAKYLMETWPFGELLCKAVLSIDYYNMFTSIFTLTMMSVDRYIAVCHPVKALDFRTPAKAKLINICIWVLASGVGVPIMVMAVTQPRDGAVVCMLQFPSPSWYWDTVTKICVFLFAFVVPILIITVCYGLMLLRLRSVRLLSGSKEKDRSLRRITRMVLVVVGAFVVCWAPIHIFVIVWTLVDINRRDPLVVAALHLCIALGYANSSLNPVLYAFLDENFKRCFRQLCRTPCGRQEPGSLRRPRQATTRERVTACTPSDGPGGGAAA

[9] = molecular target: T3, rat μ opioid receptors (rMOR); assay: biochemical; type: biochemical
[10] = molecular target: T4, human δ opioid receptors (hDOR); assay: [35S]GTP-γ-S binding assay, hDOR; type: biochemical
[11] = molecular target: T6, Substance P receptors (guinea pig NK1) (Cavia porcellus, UniProt P30547); assay: Guinea pig isolated ileum (GPI) assay with substance P stimulation in presence of 1 μM naloxone; settings: for GPI/LMMP SP Agonist (IC50; nM): Table 39
T6 construct: from tissue; host or cells: guinea pig (Hartley) ileum LMMP, 1 μM naloxone present
T6 sequence (P30547 whole entry): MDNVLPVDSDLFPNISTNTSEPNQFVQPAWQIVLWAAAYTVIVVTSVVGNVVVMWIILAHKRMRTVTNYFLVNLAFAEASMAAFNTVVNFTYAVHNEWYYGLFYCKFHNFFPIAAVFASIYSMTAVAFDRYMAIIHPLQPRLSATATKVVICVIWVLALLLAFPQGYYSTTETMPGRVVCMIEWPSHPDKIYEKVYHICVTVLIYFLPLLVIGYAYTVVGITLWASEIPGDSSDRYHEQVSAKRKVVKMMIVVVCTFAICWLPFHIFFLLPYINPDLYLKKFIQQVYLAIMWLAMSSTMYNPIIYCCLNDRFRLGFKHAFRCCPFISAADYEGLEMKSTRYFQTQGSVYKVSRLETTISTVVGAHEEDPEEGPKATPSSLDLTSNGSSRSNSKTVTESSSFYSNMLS

[12] = Solubility in HEPES buffer; type: physicochemical; settings: Table 26; HEPES buffer pH 7.4
Procedure: Solubility. HEPES buffer (0.05 M HEPES buffer in 0.1 M NaCl, pH 7.4, 500 μL) was added to 1 mg of compound. The sample was vortexed for 30 sec, sonicated for 5 min, shaken at r.t. for 2 h, and then allowed to be stayed overnight to equilibration. The sample was filtrated with an Acrodisc Syringe Filter (13 mm, 0.45 μm pore, PTFE membrane, Pall Life Sciences, East Hills, N.Y.).

[13] = read-out: GTP binding rMOR Emax
[14] = Table 24, read-out: GTP binding rMOR Emax (%)
[15] = Table 39, read-out: GTP binding rMOR Emax
[16] = read-out: GTP binding hDOR Emax
[17] = read-out: GTP binding hDOR Emax (%)

T1 sequence (P25103 whole entry): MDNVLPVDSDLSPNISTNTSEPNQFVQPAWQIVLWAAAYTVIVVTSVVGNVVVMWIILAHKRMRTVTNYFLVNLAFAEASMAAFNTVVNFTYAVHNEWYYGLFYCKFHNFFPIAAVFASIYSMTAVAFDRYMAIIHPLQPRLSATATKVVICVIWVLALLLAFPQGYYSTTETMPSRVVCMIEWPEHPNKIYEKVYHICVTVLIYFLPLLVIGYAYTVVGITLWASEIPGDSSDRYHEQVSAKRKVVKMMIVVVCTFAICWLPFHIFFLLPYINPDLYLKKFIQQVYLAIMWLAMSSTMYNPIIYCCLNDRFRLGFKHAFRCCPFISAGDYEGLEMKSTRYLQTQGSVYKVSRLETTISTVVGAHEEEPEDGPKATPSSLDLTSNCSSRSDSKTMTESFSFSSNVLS

## CC(C)C[C@H](NC(=O)[C@@H]1CCCN1C(=O)[C@H](Cc1ccccc1)NC(=O)CNC(=O)[C@@H](C)NC(=O)[C@@H](N)Cc1ccc(O)cc1)C(=O)N[C@@H](Cc1c[nH]c2ccccc12)C(=O)N(C)Cc1cc(C(F)(F)F)cc(C(F)(F)F)c1 [TY013, H-Tyr-D-Ala-Gly-Phe-Pro-Leu-Trp-NMe-3,5-Bzl(CF3)2]
[1]
  IC50: 3.16 nM
  Ki: 6.1 nM
[1]; Table 39, read-out: Affinity hNK1 (Ki; nM)
  Ki: 1.4 nM
[1]; read-out: Ki (nM), hNK1, [3H]Substance P, Table 6, CHO cell membranes
  Ki: 1.4 nM
[2]
  logD7.4: >4
[3]; Table 6
  IC50: 20 nM

## CCCC[C@@H]1NC(=O)[C@H](Cc2ccccc2)NC(=O)CNC(=O)[C@H](NC(=O)[C@@H](N)Cc2ccc(O)cc2)CSSC[C@H](C(=O)N[C@@H](Cc2c[nH]c3ccccc23)C(=O)NCc2cc(C(F)(F)F)cc(C(F)(F)F)c2)NC(=O)[C@@H]2CCCN2C1=O [TY038, [D-Cys^2, D-Cys^7]TY027] (HELM PEPTIDE1{Y.[dC].G.F.[Nle].P.[dC].W.[FC(F)(F)c1cc(CN[*:1])cc(C(F)(F)F)c1]}$PEPTIDE1,PEPTIDE1,2:R3-7:R3$$$V2.0; N-terminus assumed)
[1]
  IC50: 0.501 nM
  Ki: 0.24 nM
[1]; read-out: Ki, hNK1
  Ki: 0.25 nM
[4]; Table 22, at 1 uM, no antagonist activity observed at the tested concentration
  Opioid agonist GPI (μ), % inh.: 3% inh. at 1 uM^d
[4]; Table 39
  GPI/LMMP opioid(mu) Antagonist: none
[4]; Table 39, at 1 uM
  GPI/LMMP opioid(mu) agonist, % at 1 uM: 3% at
[4]; at the concentration of 1 μM, words
  agonist effect in the functional assay using GPI: nearly no agonist effect
[5]
  IC50: 1.58 nM
  Ki: 156 nM
[5]; Table 20, ratio rMOR Ki / hDOR Ki
  Ki(μ)/Ki(δ): 2.9
[5]; read-out: Ki, rMOR, [3H]DAMGO
  Ki: 160 nM
[6]
  half-life at 50 μg/mL: > 6 h
[7]
  IC50: 126 nM
  Ki: 55.5 nM
[8]; Table 39, read-out: MVD opioid(delta) agonist (IC50; nM)
  IC50: 18.9 nM
[8]; electrically stimulated isolated tissue, read-out: MVD (δ), IC50
  IC50: 19 nM
[9]; LogEC50, rMOR
  EC50: 20 nM
[9]; read-out: Emax (%), rMOR
  Emax: 12%
[9]; read-out: Emax, rMOR, [35S]GTP-γ-S binding
  Emax: < 20%
[9]; read-out: GTP binding rMOR EC50
  EC50: 21.7 nM
[9]; [13]
  Emax: 11%
[10]; Table 21, net total bound/basal binding × 100, read-out: Emax (%), hDOR
  Emax: 87%
[10]; Table 39, read-out: GTP binding hDOR EC50
  EC50: 14 nM
[10]; Table 39, read-out: GTP binding hDOR Emax
  Emax: 87%
[10]; net total bound/basal binding × 100, read-out: Emax, hDOR, [35S]GTP-γ-S binding
  Emax: 87%
[11]; Substance P antagonist, GPI, Ke (nM), Table 22, in the presence of 1 μM naloxone
  Kb: 12 ± 1.4 nM
[11]; at 100 nM
  GPI/LMMP SP Agonist (IC50; nM): none
[3]; Table 20
  IC50: 20 nM
[3]; Table 20, species ratio
  Ki(hNK1)/Ki(rNK1): 28
[3]; Table 39, read-out: Affinity rNK1 (Ki; nM)
  Ki: 7.11 nM
[3]; read-out: Ki, rNK1
  Ki: 7.1 nM

## CCCC[C@H](NC(=O)[C@H](Cc1ccccc1)NC(=O)CNC(=O)[C@@H](C)NC(=O)[C@@H](N)Cc1ccc(O)cc1)C(=O)N1CCC[C@H]1C(=O)NC(COC1OC(CO)C(O)C(O)C1O)C(=O)N[C@@H](Cc1c[nH]c2ccccc12)C(=O)NCc1cc(C(F)(F)F)cc(C(F)(F)F)c1 (some centres unmarked) [TY041]
[12]
  solubility: < 1 µg/mL
[9]; [14]
  Emax: 42%
[9]; [15]
  Emax: 42%
[10]; [16]
  Emax: 62%
[10]; [17]
  Emax: 62%

## CC(C)C[C@H](NC(=O)[C@@H]1CCCN1C(=O)C(COC1OC(CO)C(O)C(O)C1O)NC(=O)[C@H](Cc1ccccc1)NC(=O)CNC(=O)[C@@H](C)NC(=O)[C@@H](N)Cc1ccc(O)cc1)C(=O)N[C@@H](Cc1c[nH]c2ccccc12)C(=O)NCc1cc(C(F)(F)F)cc(C(F)(F)F)c1 (some centres unmarked) [TY042]
[12]
  solubility: 1.4 µg/mL (≈ 1.05 µM)
[9]; [14]
  Emax: 28%
[9]; [15]
  Emax: 28%
[10]; [16]
  Emax: 47%
[10]; [17]
  Emax: 47%
[11]; at 10 nM
  GPI/LMMP SP Agonist (IC50; nM): none

## CCCC[C@H](NC(=O)[C@H](Cc1ccccc1)NC(=O)CNC(=O)[C@@H](C)NC(=O)[C@@H](N)Cc1ccc(O)cc1)C(=O)N[C@@H](COC1O[C@H](CO)[C@@H](O)[C@H](O)[C@H]1O)C(=O)N[C@@H](CC(C)C)C(=O)N[C@@H](Cc1c[nH]c2ccccc12)C(=O)NCc1cc(C(F)(F)F)cc(C(F)(F)F)c1 (some centres unmarked) [TY044]
[1]
  Ki: 1.3 nM
[12]
  solubility thermodynamic: < 1 µg/mL
[5]
  Ki: 3370 nM
[8]
  IC50: 18 nM
[9]; GTP binding rMOR EC50 (nM)
  EC50: 380 nM
[9]; [13]
  Emax: 85%
[9]; read-out: GTP binding rMOR Emax (%)
  Emax: 85%
[11]; GPI/LMMP SP Antagonist (Ke; nM), Table 24
  Kb: 18.4 nM

Source: patent publication US8026218B2, “Bifunctional analgesic compounds for opioid receptor agonists and neurokinin-1 receptor antagonists” (The University of Arizona, priority 2006, dated 2011)
